The conditions of data set [1]: in words; cited from earlier work.
A short description of data set [2]: Encapsulation efficiency (% EE) in castor oil emulsions and solubility in the oil phase. The format is physicochemical. The note with it: for % EE (encapsulation efficiency) in words: castor oil emulsion. As to the method: The % EE values may be altered to fit different drugs by changing the oil phase or by changing the emulsion preparation parameters such as the oil-water ratio.
The encapsulation efficiency (% EE) values were determined by comparing the amount of the free compound in the aqueous phase with the initial concentration. The compounds were dissolved in castor oil with 10% (v/v) ethanol. […] The % EE values were calculated using the formula: % EE=(Cinitial−C(aq.))/Cinitial×100%, where Cinitial is the concentration of the compound in the emulsion and Caq. is the concentration of the compound in the aqueous phase after the centrifugation. The measurements were performed in triplicates.

The conditions of data set [3]: Zn^2+ ions for PTX; metal ions for the others; cited from earlier work.
Data set [4] has as its system cervical adenocarcinoma HeLa cells. Put plainly: MTT cytotoxicity assay, 72 h incubation. The data set is classed as cell-based. Particulars: Homo sapiens, PTX on its own, dissolved in DMSO, read-out: half maximal inhibitory concentration (IC50). As to the method:
The ability to use these emulsions for drug delivery purposes was assessed using the 3-(4,5-dimethylthiazol-2-yl)-2,5-diphenyltetrazolium bromide (MTT) assay. The assay was conducted on cervical adenocarcinoma HeLa cells with the widely used drug paclitaxel (PTX). […] This poses significant disadvantages due to stability issues of the drug that can precipitate when diluted, causing therapeutic failures and possibly harming the patients. […] One way to overcome these complications is to administer the drug in an emulsion. An additional advantage of the system proposed herein is that the disassembly of the emulsion droplets will release the metal ions of the complex in addition to the PTX. […]
The complete cell-culture medium was prepared by the addition of 10% fetal bovine serum (FBS), 1% L-glutamine, and 1% Penicillin-Streptomycin (all purchased from Sartorius) to Dulbecco's Modified Eagle's Medium (DMEM, Sigma Aldrich). […] Afterwards, cytotoxicity was measured by the previously reported MTT method. […] The medium was removed and replaced with isopropanol (200 μL), and upon complete dissolution of the formazan, the absorbance was measured at 550 nm on a Spark 10 M multimode microplate reader spectrophotometer (Tecan Group Ltd., Mannedorf, Switzerland). […]
For orientation: Formazan colour is commonly taken as a measure of viable cells.

For data set [5] the following is noted: histidine residues; cited from earlier work.
A short description of data set [6]: Self-assembly of the peptide observed experimentally. The format is physicochemical.
Data set [7] can be described thus: UV-vis titration / Benesi-Hildebrand plot / Job's plot of peptide with Cu^2+ ions. The data set is classed as binding. The note with it: read-out: stability constant (converted). The protocol:
FIG. 6. Benesi-Hildebrand plot. The stability constant derived from this plot was 6918.3±0.2 M^−1, similar to the known value for imidazole.
(FIG. 3A). […] A Job's plot was prepared as well with the peptide and Cu^2+ ions (FIG. 7B). In the samples with excess Cu^2+ ions (those above χ=0.5) the absorbance increased without an increase in the complex concentration. This may be because of the formation of Cu(OH)2 precipitates from the excess Cu^2+ ions due to the alkaline pH. To negate this effect, the absorbance values of solutions that contained the concentration of the excess Cu^2+ were subtracted from the original measurements. This yielded good linear fittings that indicate a 1:1 binding ratio.
For the UV-vis titration, a peptide solution (1.5 mm) was titrated with a CuCl2 solution (15 mM). The solutions were left for 5 min and the absorbance was measured using a UV-vis spectrophotometer (Shimadzu, UV-1650PC, Kyoto, Japan). For the Job's plot assay, peptide solutions with different mole fractions of Cu^2+ ions (up to 1 mm) were prepared at pH=9 and their absorbance values were measured.

A short description of data set [8]: Emulsion formation and stability (mixing with non-aqueous phase, manual agitation). The format is physicochemical. The note with it: chloroform-water. From the text:
We designed the peptide Trp-His-His-Trp (WHHW, SEQ ID NO 1), which contains a metal-binding dihistidine moiety surrounded by two hydrophobic amino acids. When an aqueous solution of the peptide and certain metal ions are mixed with a non-aqueous phase, an emulsion is formed (FIG. 1B). […] Depending on the ratio between the aqueous and non-aqueous phases, o/w or w/o emulsions can be formed (FIG. 1C). The peptide has weak inherent fluorescence, but its presence on the interface of the emulsion droplets was inferred by labeling it with fluorescein isothiocyanate (FITC) (FIG. 1D).
By increasing the pH again, the emulsion can be reassembled. With chloroform as the non-aqueous phase, the emulsion has a critical micelle concentration of ~0.2 mM and it is stable for at least 4 months at room temperature (FIG. 3A). Adding ethylenediaminetetraacetic acid (EDTA) to remove the metal ions visibly disassembled the emulsion after ~24 h (FIG. 3B).
The same peptide derivatives in the presence of Cu^2+ ions, were further mixed with chloroform and manually agitated to form emulsions (FIG. 8).
The emulsions were prepared by mixing a peptide solution with the metal ions to a final concentration of 1 mm each and adding NaOH to obtain pH=10. The desired non-aqueous phase was added to this solution at 50% (v/v) and the two phases were manually agitated to form the emulsions. […]

Peptide text beside a SMILES is read from it.

As to `Cc1ccc(C)c(N=Nc2cc(C)c(N=Nc3c(O)ccc4ccccc34)cc2C)c1` [Oil red O], in data set [1], the Solubility in water entry is “Insoluble”. In data set [2], the “solubility in castor oil” value is on record as “low solubility” and the “% EE (encapsulation efficiency) in words” value is recorded as “lower”.
Regarding `CC(=O)O[C@H]1C(=O)[C@@]2(C)[C@H]([C@H](OC(=O)c3ccccc3)[C@]3(O)C[C@H](OC(=O)[C@H](O)[C@@H](NC(=O)c4ccccc4)c4ccccc4)C(C)=C1C3(C)C)[C@]1(OC(C)=O)CO[C@@H]1C[C@@H]2O` [Paclitaxel], the Solubility in water result in data set [1] is given as “Insoluble”. In data set [3], the “anti-tumor efficacy in presence of metal ions” value (“anti-tumor efficacy in presence” for short) is “enhanced”. Further, in data set [4], the IC50 amounted to 0.014 ± 0.005 µM.
On to `O=C1OC2(c3ccc(O)cc3Oc3cc(O)ccc32)c2ccc(N=C=S)cc21` [FITC, fluorescein isothiocyanate], for which, in data set [1], the Solubility in water result is “Insoluble”. Moreover, in data set [2], the “solubility in castor oil” value was “low solubility” and the “% EE (encapsulation efficiency) in words” value is “lower”.
For the compound `c1c[nH]cn1` [imidazole], the “pKa of the imidazole's amine” value in data set [5] is ~ 6.
For the compound `CCN(CC)C(=S)SSC(=S)N(CC)CC` [Disulfiram], the “anti-tumor efficacy in presence” value in data set [3] is on record as “promoted”.
Turning to `N[C@@H](Cc1c[nH]c2ccccc12)C(=O)N[C@@H](Cc1c[nH]cn1)C(=O)N[C@@H](Cc1c[nH]cn1)C(=O)N[C@@H](Cc1c[nH]c2ccccc12)C(=O)O` [WHHW, Trp-His-His-Trp] (H-WHHW-OH), in data set [6] (5 mM peptide, 5 mM Cu^2+), the “self-assembled structure with Cu^2+ ions” value was “spherical aggregates alongside the fibrous structures”. Besides, the self-assembled structure result in data set [6] (10 mM, water, 24 h) is on record as “fibrous structures”. Besides, the Kd in data set [7] is 145 µM. Also, the “formation of emulsions with Cu^2+ ions” value in data set [8] (1 mM peptide derivative and 1 mM Cu^2+) was “formed emulsions”.
For the compound `N[C@@H](Cc1ccccc1)C(=O)N[C@@H](Cc1c[nH]cn1)C(=O)N[C@@H](Cc1c[nH]cn1)C(=O)N[C@@H](Cc1ccccc1)C(=O)O` [FHHF, Phe-His-His-Phe] (H-FHHF-OH), the “emulsion stability compared with WHHW” value in data set [8] (1 mM peptide and 1 mM Cu^2+) is given as “less stable”.
In the case of `COc1cc(/C=C/C(=O)CC(=O)/C=C/c2ccc(O)c(OC)c2)ccc1O` [curcumin], in data set [3], the “anti-tumor efficacy in presence” value is reported as “promoted”.
For the compound `CCN(CC)c1ccc2nc3c4ccccc4c(=O)cc-3oc2c1` [Nile red], the Solubility in water result in data set [1] is on record as “Insoluble”.

Values taken from patent publication US20260297127A1, “REVERSIBLE SURFACTANT AND MULTIFUNCTIONAL DRUG DELIVERY SYSTEMS BASED THEREON” (Yissum Research Development Company of the Hebrew …, priority 2023, published 2026).
